From patent US12403132B2, “Methods of treating bone marrow failure syndromes and compositions for use in the same” (The Board of Trustees of the Leland Stanford Junior …, priority 2020, dated 2025)

Assays:
[1] = test system: CD235+ erythroblasts; assay: CD235+ erythroid expansion of differentiating human cord blood CD34+ progenitors (shRPS19/shRPL11 DBA models), flow cytometry; assay type: cell-based
[2] = test system: c-Myb; assay: c-Myb protein and phosphorylation by Western blot after p53 activation in Kp53A1 cells; assay type: cell-based, human
[3] = test system: c-Myb; assay: NLK kinase and ubiquitination assays with c-Myb as substrate, Kp53A1 cells; assay type: cell-based, human
Source text: FIG. 4. NLK phosphorylation of c-Myb results in ubiquitination and proteasome degradation. Fetal liver CD34+ progenitors transduced with shRNA against luciferase (shLuc) or RPS19 (shRPS19) in conjunction with siRNA against NLK (siNLK) or a non-targeting sequence (NT). Cells were differentiated for 5 days and split into three aliquots. One aliquot was lysed and probed for c-Myb, NLK, RPS19 and GAPDH protein expression by western blot, while the second aliquot was subjected to qRT-PCR to examine c-Myb mRNA expression (a) The third aliquot was analyzed for NLK activity by kinase assay (b—upper) and ubiquitination assay (b—lower). Orange, blue and green bars represent the extent of NLK, Myb and raptor phosphorylation respectively. Values are expressed as a fold relative to activity in controls (shLuc/NT). White, grey and black bars designate the substrates NLK, c-Myb and raptor respectively with values designating the extent of ubiquitination observed of each substrate relative to control. (c and d) Kp53A1 cells alone, or transfected with plasmids expressing NT or siNLK were cultured for 30 h at 37 or 32° C. prior to lysis and western blotting for c-Myb, NLK and GAPDH. Myb mRNA levels were determined by qRT-PCR. (c) and NLK kinase assays and cell ubiquitination assays were performed as above. (e) Kp53A1 cells were cultured at 37 (grey bars) or 32° C. […]

[4] = test system: CD235+ erythroblasts; assay: CD235+ erythroid expansion of differentiating human cord blood CD34+ progenitors (shRPS19/shRPL11 DBA models), flow cytometry; assay type: cell-based; details: control (shLuc), exogenous TGFβ 5 ng/ml
Procedure: FIG. 7. […] (a) Differentiating cord blood CD34+ progenitors were transduced with shRNA against luciferase or RPS19 and treated with inhibitors at working concentrations for TGFβ inhibition every three days. Cells were counted and CD235+ erythroid cells were assessed by flow cytometry after 15 days. (b) Prior to flow cytometry, 5000 cells per group were taken from differentiating cultures for NLK kinase assay. (c) CD34+ progenitors were transduced with shRNA against luciferase or RPS19 and non-targeting or siRNA against NLK. After sorting, samples were split into two groups and either treated with vehicle or SD208 every three days. After 15 days cells were counted and subject to flow cytometry to compare the expansion of maturing CD235+ erythroid (left panel) and CD11b+ myeloid cells (right panel). (d) Cord Blood CD34+ progenitors were transduced with shRNA against luciferase (left panel) or RPS19 (right panel) differentiated in erythroid media for 15 days alone, or in the presence of SB525334 or SD208 at 5 μM. Cells were counted and CD235+ erythroid (D—upper) and CD11b+ myeloid cell (D—lower) percentages were determined by flow cytometry. The number of erythroid or myeloid cells is expressed as a percentage of the number of that lineage with no cytokine or drug treatment.
FIG. 8. […] Human cord blood CD34+ progenitors were transduced with lentivirus co-expressing GFP with shRNA against luciferase (shLuc), RPS19 (shRPS19) or RPL11 (shRPL11). After 36 hours cells GFP+ cells were differentiated in erythroid media in the presence or absence of 5 μM SD208 for 15 days. Cells were counted and assessed for cell surface expression of CD235. (a) The percentage of CD235+ cells was multiplied by the cell count and values were compared as a percentage of untreated controls. (b) Normalizing values relative to untreated RPS19-insufficiency progenitors facilitates direct comparison of erythropoiesis between untreated and SD208-treated cultures. (c) Approximately 3000 cells were removed from differentiating treatments at day 6 and NLK activity was assessed. Values were normalized to reflect a fold induction relative to untreated controls. (d) Lin-Kit+ hematopoietic progenitors were obtained from three mouse embryos expressing tetracycline-inducible shRNA against RPS19 at day E14.5 or three untreated mice, and thee mature RPL11^+/+ or three mature RPL11^+/lox mice treated with tamoxifen for eight weeks. Cells were grown in the presence or absence of doxycycline and/or SD208 for eight days prior to counting and assessing for ter119 surface expression. Values were expressed as a percentage relative to untreated controls (e) and directly comparing the effect of SD208 on erythropoiesis in ribosomal-insufficiency by expressing values relative to untreated ribosome-insufficient cultures (f). At day 5 approximately 3000 cells were assayed for NLK kinase assay (g). CD34+ HSPCs were isolated from three healthy control and three DBA patient mononuclear bone marrow aspirates by magnetic bead sorting and differentiated in the presence or absence of SD208 for 14 days. After counting the total cell population, the ratio of CD235+ erythroblasts was determined by flow cytometry and number of CD235+ erythroblasts calculated. This was expressed as a percentage of the average number of erythroid cells present in untreated healthy controls. (h) The direct effect of SD208 on erythroid expansion in DBA patient samples was calculated following normalization of untreated DBA patient samples as 1-fold, (i) At day five, 3000 cells from each of the differentiating cultures was analyzed for NLK activity by kinase assay and are expressed as a fold induction relative to untreated healthy controls.

[5] = test system: CD11b+ myeloid cells; assay: CD11b+ myeloid expansion of differentiating human cord blood CD34+ progenitors; assay type: cell-based; details: control (shLuc), exogenous TGFβ 5 ng/ml
Procedure: FIG. 7. SD208 increases erythroid expansion in human model of DBA through inhibition of NLK and not TGFβ. (a) Differentiating cord blood CD34+ progenitors were transduced with shRNA against luciferase or RPS19 and treated with inhibitors at working concentrations for TGFβ inhibition every three days. Cells were counted and CD235+ erythroid cells were assessed by flow cytometry after 15 days. (b) Prior to flow cytometry, 5000 cells per group were taken from differentiating cultures for NLK kinase assay. (c) CD34+ progenitors were transduced with shRNA against luciferase or RPS19 and non-targeting or siRNA against NLK. After sorting, samples were split into two groups and either treated with vehicle or SD208 every three days. After 15 days cells were counted and subject to flow cytometry to compare the expansion of maturing CD235+ erythroid (left panel) and CD11b+ myeloid cells (right panel). […] Cells were counted and CD235+ erythroid (D—upper) and CD11b+ myeloid cell (D—lower) percentages were determined by flow cytometry. The number of erythroid or myeloid cells is expressed as a percentage of the number of that lineage with no cytokine or drug treatment.
FIG. 9. […] Cells were counted and the percentage expressing CD235+ erythroid (left) and CD11b+ myeloid (right) was determined by flow cytometry. […] Values are expressed as a fold induction relative to untreated. (Panel C) Transduced and sorted CD34+ progenitors were cultured in methylcellulose in the presence or absence of metformin for 16 days and BFU-E erythroid (left) and CFU-GM myeloid (right) colonies scored. […] To directly compare the effect of metformin in each group, metformin-treated cultures were normalized to untreated cultures and are expressed as a fold induction of the untreated control. […]
Cells were incubated with human Fc receptor binding inhibitor (#14-9161-73; eBioscience) followed by primary antibodies CD235-APC (#306607; BioLegend) and CD11b-PE/Cy5 (#101209; BioLegend). Data were collected on a DxP10 flow cytometer (Cytek) and analyzed by using FlowJo Software, v.9.7.2.

Cc1cccc(-c2[nH]c(C(C)(C)C)nc2-c2ccc3c(c2)OCO3)n1 [SB505124]
erythroid and myeloid expansion restored, % of cultures not treated with TGFβ ([1]; TGFβ-treated control and RPS19-insufficiency, 5 μM): at least 95%

CC(=O)N[C@@H](CSC(=O)[C@]1([C@@H](O)C(C)C)NC(=O)[C@H](C)[C@@H]1O)C(=O)O [lactacystin]
c-Myb protein levels ([2]; Kp53A1, 16 hours post p53 activation, lactacystin 10 μM, chloroquine 30 μM): sustained
c-Myb phosphorylation ([2]; Kp53A1, after p53 activation, up to 48 h): sustained phosphorylation to 48 h

CN[C@@H]1C[C@H]2O[C@@](C)([C@@H]1OC)n1c3ccccc3c3c4c(c5c6ccccc6n2c5c31)C(=O)NC4 [staurosporine]
c-Myb phosphorylation, fold increase relative to controls ([3]; 1 µM): 1.3 fold
c-Myb ubiquitination, fold of control ([3]; Kp53A1 lysate with elevated p53 activity, 1 μM staurosporine, 7.4-fold without inhibitor): 2.3 fold

TGFβ: exogenous TGFβ (5 ng/ml)
reduction of erythroid progenitors [4]: 85%
reduction of myeloid progenitors [5]: 80%
additional reduction of erythroid expansion ([1]; RPS19-insufficient progenitors, exogenous TGFβ): 86%
